Test results from ChEMBL document CHEMBL4402573, “Discovery and Optimization of α-Mangostin Derivatives as Novel PDE4 Inhibitors for the Treatment of Vascular Dementia” (J Med Chem, 2020).
pIC50: −log10 of the molar value. The source made the active and inactive calls. The calls are words filed in the database; no cut-off is given here.

How the values were obtained:
[1] = biological target: High affinity cAMP-specific and IBMX-insensitive 3',5'-cyclic phosphodiesterase 8A (Homo sapiens, UniProt O60658); experiment: Inhibition of human PDE8A1 (480 to 820 residues) expressed in Escherichia coli BL21 codon-plus cells using [3H]cAMP as substrate incubated for 15 mins by liquid scintillation counting method
[2] = biological target: cGMP-inhibited 3',5'-cyclic phosphodiesterase 3A (Homo sapiens, UniProt Q14432); experiment: Inhibition of human PDE3A (679 to 1087 residues) expressed in Escherichia coli BL21 codon-plus cells using [3H]cAMP as substrate incubated for 15 mins by liquid scintillation counting method
[3] = Stability in rat liver microsomes assessed as half life at 0.5 uM; type: ADME, Microsome
RAW264.7 = experiment: Antiinflammatory activity in mouse RAW264.7 assessed as reduction in LPS-induced NO production incubated for 24 hrs by Griess method; type: functional, cell-based
[4] = Cmax in Sprague-Dawley rat at 2.5 mg/kg, iv measured upto 24 hrs by LC-MS/MS analysis; type: ADME, organism-based; set-up: dose 2.5 mg/kg, route intravenous; settings: in vivo
Cytochrome P450 2D6 = Cytochrome P450 2D6 (Homo sapiens, UniProt P10635); experiment: Inhibition of human CYP2D6; type: ADME
[5] = Toxicity in Beagle dog assessed as animals exhibiting emesis at 5 mg/kg, po observed for 180 mins; type: organism-based, Canis lupus familiaris; settings: in vivo, 3 h
Cytochrome P450 3A4 = Cytochrome P450 3A4 (Homo sapiens, UniProt P08684); experiment: Inhibition of human CYP3A4; type: ADME
Homo sapiens [6] = species: Homo sapiens; experiment: Selectivity index, ratio of IC50 for human PDE5A1 (535 to 860 residues) expressed in Escherichia coli BL21 codon-plus cells to IC50 for human PDE4D2 (86 to 413 residues) expressed in Escherichia coli BL21 codon-plus cells
[7] = biological target: cGMP-specific 3',5'-cyclic phosphodiesterase (Homo sapiens, UniProt O76074); experiment: Inhibition of human PDE5A1 (535 to 860 residues) expressed in Escherichia coli BL21 codon-plus cells using [3H]cGMP as substrate incubated for 15 mins by liquid scintillation counting method
[8] = biological target: 3',5'-cyclic-AMP phosphodiesterase 4D (Homo sapiens, UniProt Q08499); experiment: Inhibition of human PDE4D2 (86 to 413 residues) expressed in Escherichia coli BL21 codon-plus cells using [3H]cAMP as substrate incubated for 15 mins by liquid scintillation counting method
Mus musculus [9] = experiment: Anti-VaD activity against UCCAO-induced spatial memory deficient C57BL/6J mouse model assessed as improvement in spatial learning and memory by measuring increase in latency time at 10 mg/kg, po administered for 21 days by passive avoidance test; type: functional, organism-based
[10] = Tmax in Sprague-Dawley rat at 5 mg/kg, po measured upto 24 hrs by LC-MS/MS analysis; type: ADME, organism-based; settings: in vivo
Mus musculus [11] = experiment: Anti-VaD activity against UCCAO-induced spatial memory deficient C57BL/6J mouse model assessed as improvement in spatial learning and memory by measuring increase in residence time on the platform at 10 mg/kg, po administered for 21 days by Morris water maze test; type: functional, organism-based
[12] = biological target: Voltage-gated inwardly rectifying potassium channel KCNH2 (Homo sapiens, UniProt Q12809); experiment: Inhibition of human ERG expressed in CHO cells by automated patch clamp electrophysiology; type: cell-based
[13] = Cmax in Sprague-Dawley rat at 5 mg/kg, po measured upto 24 hrs by LC-MS/MS analysis; type: ADME, organism-based; set-up: dose 5 mg/kg, route oral; settings: in vivo
Homo sapiens [14] = species: Homo sapiens; experiment: Selectivity index, ratio of IC50 for human PDE8A1 (480 to 820 residues) expressed in Escherichia coli BL21 codon-plus cells to IC50 for human PDE4D2 (86 to 413 residues) expressed in Escherichia coli BL21 codon-plus cells

Cytochrome P450 3A4, sequence (P08684 whole entry, the tested form may be a part): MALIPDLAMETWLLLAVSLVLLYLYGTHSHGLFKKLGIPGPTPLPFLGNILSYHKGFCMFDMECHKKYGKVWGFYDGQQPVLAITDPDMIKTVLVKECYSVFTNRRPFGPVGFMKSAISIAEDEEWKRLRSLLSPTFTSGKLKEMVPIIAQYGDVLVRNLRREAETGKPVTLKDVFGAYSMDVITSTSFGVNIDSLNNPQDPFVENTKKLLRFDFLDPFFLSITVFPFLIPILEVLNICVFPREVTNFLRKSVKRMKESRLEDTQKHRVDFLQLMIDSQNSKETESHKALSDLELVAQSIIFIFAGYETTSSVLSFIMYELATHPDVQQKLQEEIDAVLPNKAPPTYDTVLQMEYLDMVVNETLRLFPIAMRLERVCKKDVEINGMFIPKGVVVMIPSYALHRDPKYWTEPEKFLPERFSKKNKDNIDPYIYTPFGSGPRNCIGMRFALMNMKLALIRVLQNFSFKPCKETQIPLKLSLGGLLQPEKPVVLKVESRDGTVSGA
High affinity cAMP-specific and IBMX-insensitive 3',5'-cyclic phosphodiesterase 8A, sequence (O60658 whole entry, the tested form may be a part): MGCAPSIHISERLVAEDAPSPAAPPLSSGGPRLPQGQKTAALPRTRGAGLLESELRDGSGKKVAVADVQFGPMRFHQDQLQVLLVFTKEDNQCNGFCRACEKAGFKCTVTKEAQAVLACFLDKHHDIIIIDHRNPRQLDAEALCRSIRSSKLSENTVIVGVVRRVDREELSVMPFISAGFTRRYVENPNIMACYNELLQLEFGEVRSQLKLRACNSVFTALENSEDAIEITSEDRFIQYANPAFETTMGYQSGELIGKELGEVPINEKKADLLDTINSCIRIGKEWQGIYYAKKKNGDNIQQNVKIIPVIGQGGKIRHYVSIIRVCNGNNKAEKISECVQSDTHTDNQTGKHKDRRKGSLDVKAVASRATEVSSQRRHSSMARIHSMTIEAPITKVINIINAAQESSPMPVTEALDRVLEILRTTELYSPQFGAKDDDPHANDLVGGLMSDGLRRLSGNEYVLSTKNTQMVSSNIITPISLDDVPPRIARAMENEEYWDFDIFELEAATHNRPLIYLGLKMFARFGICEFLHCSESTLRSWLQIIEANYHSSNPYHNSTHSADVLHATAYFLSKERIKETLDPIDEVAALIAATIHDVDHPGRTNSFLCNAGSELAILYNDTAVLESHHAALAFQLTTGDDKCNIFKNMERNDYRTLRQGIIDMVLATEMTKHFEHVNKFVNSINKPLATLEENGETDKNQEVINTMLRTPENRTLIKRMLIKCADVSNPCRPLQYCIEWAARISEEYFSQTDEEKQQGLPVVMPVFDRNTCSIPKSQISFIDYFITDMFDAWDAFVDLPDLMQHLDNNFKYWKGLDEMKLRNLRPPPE
Voltage-gated inwardly rectifying potassium channel KCNH2, sequence (Q12809 whole entry): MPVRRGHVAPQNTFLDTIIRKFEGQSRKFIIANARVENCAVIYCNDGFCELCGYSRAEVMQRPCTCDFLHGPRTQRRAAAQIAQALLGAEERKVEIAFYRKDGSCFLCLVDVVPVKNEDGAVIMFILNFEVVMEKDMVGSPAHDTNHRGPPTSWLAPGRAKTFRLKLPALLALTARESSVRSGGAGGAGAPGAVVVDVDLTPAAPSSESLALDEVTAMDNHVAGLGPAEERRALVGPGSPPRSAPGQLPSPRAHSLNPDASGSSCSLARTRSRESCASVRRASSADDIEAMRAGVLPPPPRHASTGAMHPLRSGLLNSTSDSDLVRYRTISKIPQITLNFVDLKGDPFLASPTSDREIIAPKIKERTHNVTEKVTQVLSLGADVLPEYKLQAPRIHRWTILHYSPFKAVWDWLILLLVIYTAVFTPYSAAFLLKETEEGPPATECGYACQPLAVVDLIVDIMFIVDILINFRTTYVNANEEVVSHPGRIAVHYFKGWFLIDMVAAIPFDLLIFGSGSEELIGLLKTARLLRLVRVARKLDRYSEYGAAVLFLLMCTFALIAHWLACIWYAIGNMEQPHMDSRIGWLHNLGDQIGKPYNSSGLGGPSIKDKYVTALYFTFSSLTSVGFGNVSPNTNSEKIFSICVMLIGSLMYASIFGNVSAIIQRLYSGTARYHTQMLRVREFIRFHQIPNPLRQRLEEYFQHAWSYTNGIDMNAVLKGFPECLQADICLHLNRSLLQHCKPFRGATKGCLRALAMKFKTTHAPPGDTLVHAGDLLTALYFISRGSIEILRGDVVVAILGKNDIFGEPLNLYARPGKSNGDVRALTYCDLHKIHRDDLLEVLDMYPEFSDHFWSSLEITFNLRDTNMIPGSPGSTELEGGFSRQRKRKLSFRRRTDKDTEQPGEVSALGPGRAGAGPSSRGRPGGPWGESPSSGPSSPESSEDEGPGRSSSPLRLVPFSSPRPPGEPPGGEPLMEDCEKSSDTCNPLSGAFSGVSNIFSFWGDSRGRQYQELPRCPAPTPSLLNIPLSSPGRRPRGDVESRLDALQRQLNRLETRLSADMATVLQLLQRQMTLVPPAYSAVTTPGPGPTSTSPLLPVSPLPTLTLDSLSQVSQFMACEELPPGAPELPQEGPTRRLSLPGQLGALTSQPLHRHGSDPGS
Cytochrome P450 2D6, sequence (P10635 whole entry): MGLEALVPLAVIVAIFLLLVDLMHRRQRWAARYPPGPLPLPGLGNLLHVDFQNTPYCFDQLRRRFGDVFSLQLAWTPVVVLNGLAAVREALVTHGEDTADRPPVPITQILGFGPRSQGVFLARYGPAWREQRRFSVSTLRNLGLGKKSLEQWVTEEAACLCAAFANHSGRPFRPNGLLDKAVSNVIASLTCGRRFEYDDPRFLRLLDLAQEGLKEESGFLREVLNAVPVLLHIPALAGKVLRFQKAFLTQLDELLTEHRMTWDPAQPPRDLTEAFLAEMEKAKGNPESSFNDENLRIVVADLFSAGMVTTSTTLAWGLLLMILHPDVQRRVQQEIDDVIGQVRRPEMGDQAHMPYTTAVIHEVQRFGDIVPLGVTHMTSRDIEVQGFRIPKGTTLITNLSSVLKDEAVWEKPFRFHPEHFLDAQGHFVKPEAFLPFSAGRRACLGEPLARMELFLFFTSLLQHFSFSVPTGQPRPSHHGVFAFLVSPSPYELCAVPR
cGMP-inhibited 3',5'-cyclic phosphodiesterase 3A, sequence (Q14432 whole entry, the tested form may be a part): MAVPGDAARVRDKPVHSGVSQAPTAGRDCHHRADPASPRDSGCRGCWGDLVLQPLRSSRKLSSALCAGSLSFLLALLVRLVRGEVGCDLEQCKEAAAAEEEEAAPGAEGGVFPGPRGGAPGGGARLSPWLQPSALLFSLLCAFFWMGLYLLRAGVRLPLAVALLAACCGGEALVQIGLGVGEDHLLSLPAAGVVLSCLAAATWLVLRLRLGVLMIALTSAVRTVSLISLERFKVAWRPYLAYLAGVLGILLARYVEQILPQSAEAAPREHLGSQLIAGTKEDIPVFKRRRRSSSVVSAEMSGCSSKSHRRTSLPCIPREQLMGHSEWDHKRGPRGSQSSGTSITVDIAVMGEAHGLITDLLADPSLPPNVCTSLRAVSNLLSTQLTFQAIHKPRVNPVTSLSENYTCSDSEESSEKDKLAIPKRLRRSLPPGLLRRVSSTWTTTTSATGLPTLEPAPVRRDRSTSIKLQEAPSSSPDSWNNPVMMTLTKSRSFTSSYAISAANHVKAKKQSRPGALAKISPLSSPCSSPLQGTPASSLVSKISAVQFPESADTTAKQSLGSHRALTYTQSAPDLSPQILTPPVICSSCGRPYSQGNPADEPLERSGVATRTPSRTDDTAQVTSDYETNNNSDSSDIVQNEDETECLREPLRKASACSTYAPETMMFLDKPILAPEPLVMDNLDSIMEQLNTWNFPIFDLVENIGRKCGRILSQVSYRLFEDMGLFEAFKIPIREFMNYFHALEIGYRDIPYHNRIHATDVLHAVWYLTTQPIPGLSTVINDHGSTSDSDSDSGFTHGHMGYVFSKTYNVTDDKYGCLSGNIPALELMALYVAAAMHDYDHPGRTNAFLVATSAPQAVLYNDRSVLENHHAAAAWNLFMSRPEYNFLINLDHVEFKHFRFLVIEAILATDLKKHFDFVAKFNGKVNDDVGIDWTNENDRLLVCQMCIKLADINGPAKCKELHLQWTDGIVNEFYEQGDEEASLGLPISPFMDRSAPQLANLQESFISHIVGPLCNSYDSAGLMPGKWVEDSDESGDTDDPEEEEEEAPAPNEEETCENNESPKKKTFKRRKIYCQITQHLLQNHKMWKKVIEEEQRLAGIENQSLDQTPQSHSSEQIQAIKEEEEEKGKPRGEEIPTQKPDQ
3',5'-cyclic-AMP phosphodiesterase 4D, sequence (Q08499 whole entry, the tested form may be a part): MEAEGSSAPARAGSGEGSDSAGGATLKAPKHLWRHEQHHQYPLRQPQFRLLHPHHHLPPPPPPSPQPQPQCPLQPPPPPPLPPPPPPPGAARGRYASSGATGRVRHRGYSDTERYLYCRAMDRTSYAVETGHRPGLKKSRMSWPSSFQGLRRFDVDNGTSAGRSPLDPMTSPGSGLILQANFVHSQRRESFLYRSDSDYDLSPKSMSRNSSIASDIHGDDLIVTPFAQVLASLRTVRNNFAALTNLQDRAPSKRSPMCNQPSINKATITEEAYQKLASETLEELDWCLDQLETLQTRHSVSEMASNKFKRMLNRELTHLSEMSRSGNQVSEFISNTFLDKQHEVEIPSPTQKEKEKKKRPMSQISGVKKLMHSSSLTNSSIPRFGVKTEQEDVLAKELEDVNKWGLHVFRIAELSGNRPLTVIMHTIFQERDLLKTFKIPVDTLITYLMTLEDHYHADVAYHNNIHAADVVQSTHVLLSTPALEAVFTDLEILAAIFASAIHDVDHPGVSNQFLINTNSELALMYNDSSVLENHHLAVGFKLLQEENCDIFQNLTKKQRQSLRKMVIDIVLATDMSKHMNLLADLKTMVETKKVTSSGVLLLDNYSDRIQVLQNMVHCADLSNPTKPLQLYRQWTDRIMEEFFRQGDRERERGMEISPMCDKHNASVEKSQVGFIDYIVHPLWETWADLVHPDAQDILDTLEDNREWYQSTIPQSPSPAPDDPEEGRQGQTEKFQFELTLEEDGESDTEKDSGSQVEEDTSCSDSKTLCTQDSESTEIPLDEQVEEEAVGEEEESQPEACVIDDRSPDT

COc1c(OCCCCCCC(=O)O)cc2oc3cc4c(c(O)c3c(=O)c2c1CC=C(C)C)C=CC(C)(C)O4
pIC50 [1]: < 5.00 | pIC50 [2]: < 5.00 | half-life at 0.5 µM [3]: 2.8 h | Activity (RAW264.7): Dose-dependent effect | Cmax [4]: 14100 ng/mL | pIC50 (Cytochrome P450 2D6): < 5.00 | Activity [5]: 0% | pIC50 (Cytochrome P450 3A4): < 5.00 | Ratio IC50 (Homo sapiens [6]): 199 | pIC50 [7]: 5.47 | pIC50 [8]: 7.77 | Activity (Mus musculus [9]): Active | Tmax [10]: 4.67 h | Activity (Mus musculus [11]): Active | pIC50 [12]: < 4.52 | Cmax [13]: 661 ng/mL | Ratio IC50 (Homo sapiens [14]): > 580
